In assay [1] the target is T1, thromboxane A2 (TxA2) receptor (Cavia porcellus, UniProt A0A286Y4I8).
T1 construct: to obtain washed platelets; from tissue; host or cells: washed platelets of male Hartley guinea pigs
T1 sequence (A0A286Y4I8 1-347): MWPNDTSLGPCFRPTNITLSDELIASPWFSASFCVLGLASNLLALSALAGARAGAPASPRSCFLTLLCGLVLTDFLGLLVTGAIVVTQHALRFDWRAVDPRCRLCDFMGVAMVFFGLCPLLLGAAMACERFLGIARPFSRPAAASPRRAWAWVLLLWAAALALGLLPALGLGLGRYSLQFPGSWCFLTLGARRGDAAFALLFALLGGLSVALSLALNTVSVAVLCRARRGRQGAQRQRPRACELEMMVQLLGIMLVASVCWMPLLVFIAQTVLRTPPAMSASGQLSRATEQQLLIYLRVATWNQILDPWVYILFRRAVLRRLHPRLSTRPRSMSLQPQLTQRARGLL
As to the kind of experiment: TxA2 antagonist action by binding assay. Conditions: washed guinea pig platelets, 1 nM [3H]-SQ29,548, 45 minutes at 25° C. Here is the method: (1) TxA2 antagonist action by binding assay Guinea pigs (Hartley; male; body weight=approximately 500 g) were anesthetized with ether, and the blood was collected into sodium citrate (final concentration=0.38%). The preparation of platelets was carried out at room temperature. The platelet rich plasma was obtained by centrifugation at 980 rpm for 10 minutes. One tenth (1/10) amount of 77 mM-EDTA-Na (pH 7.4) was added to the platelet rich plasma, and the mixture was centrifuged for 10 minutes at 3000 rpm. The suspension was again centrifuged at 3000 rpm for 10 minutes. The precipitate was further resuspended in a suspension buffer (2) shown in Table 2 to obtain washed platelets. The number of platelets was counted by an automatic blood cell counter (Sysmex Microcellcounter F-800) and the sample was diluted with the suspension buffer to 4×10^8 cells/ml. The platelets, sample solution and labeled compounds were placed into plastic tubes in amounts (volumes) shown in the following Table 3, incubated for 45 minutes at 25° C., and then the mixture was filtered using a cell harvester (Brandel cell harvester M-24R) by a glass fiber filter (Whatman GF/B). After the filter was sufficiently dried, the scintillation was counted by a scintillation counter (Beckman LS5000TD). IC50 was calculated from (binding)/(control binding) ratio in the presence of an antagonist. [table 3: the next 10 blocks are its lines as printed, fixed-width]

A further assay deals with rat platelet. As to the kind of experiment: Inhibitory activity of aggregation in rat platelet. Format: cell-based. The conditions noted are these: rat platelet rich plasma, arachidonic acid (final concentration 0.5 mM) as inducer; read-out: C: Inhibitory activity of aggregation in rat platelet (IC50; μM). Here is the method: (3) Inhibitory Activity of Aggregation in Rat Platelet The abdomen of etherized rat was open, and blood was taken from the abdominal arteries, using a sodium citrate solution (final concentration was 0.38%). The blood was centrifuged at 1100 rpm for 10 minutes, and the supernatent was separated as the platelet rich plasma. The plasma was further centrifuged at 2000 rpm for 15 minutes to obtain the supernatent as a platelet poor plasma. The platelet rich plasma (280 μl) was placed in a measuring cuvette and preincubated for 1 minute at 37° C. Then, a sample solution (10 μl) was added. After 2 minutes, an arachidonic acid solution (final concentration=0.5 mM) (10 μl) was added as an inducer. The change in light transmission was recorded for 5 minutes.

Data on 25 molecules can be found in patent US5650428A, “Arylsulfonamide derivative and pharmaceutical compositions and use thereof” (NKK Corporation, priority 1993, dated 1997).

What is called IC50 is the concentration needed to halve the response being measured.

Regarding `O=C(O)Cc1ccc(NC(=O)C(COc2cccc(Cl)c2)NS(=O)(=O)c2ccc(I)cc2)cc1` (racemic) [Example 151, (RS)-N-(4-(carboxymethyl)phenyl)-3-(3-chlorophenoxy)-2-(4-iodobenzenesulfonylamino) propanamide], the values for the IC50 (in assay [1]; with rat platelet) were 0.019 µM and 1.7 µM, respectively.
For the molecule `O=C(O)Cc1ccc(NC(=O)C(COc2ccccc2Cl)NS(=O)(=O)c2ccc(I)cc2)cc1` (racemic) [Example 152, (RS)-N-(4-(carboxymethyl)phenyl)-3-(2-chlorophenoxy)-2-(4-iodobenzenesulfonylamino)propanamide], the results for the IC50 (in assay [1]; with rat platelet) were 0.074 µM and 1.7 µM, respectively.
The matching figures for `O=C(O)Cc1ccc(NC(=O)C(CCOC2CCCCO2)NS(=O)(=O)c2ccc(Cl)cc2)cc1` (racemic) [Example 169, (RS)-N-(4-(carboxymethyl)phenyl)-2-(4-chlorobenzenesulfonylamino)-4-(tetrahydropyran-2-yloxy)butanamide]: 0.69 µM and 1.7 µM.
In the same order, the values of `O=C(O)Cc1ccc(NC(=O)C(CCc2ccccc2)NS(=O)(=O)c2ccc(Cl)cc2)cc1` (racemic) [Example 172, (RS)-N-(4-(carboxymethyl)phenyl)-2-(4-chlorobenzenesulfonylamino)-4-phenylbutanamide] are 0.072 µM and 1.7 µM.
Take `O=C(O)CCc1ccc(NC(=O)C(CCc2ccccc2)NS(=O)(=O)c2ccc(Cl)cc2)cc1` (racemic) [Example 174, (RS)-N-(4-(2-carboxyethyl)phenyl)-2-(4-chlorobenzenesulfonylamino)-4-phenylbutanamide]: the IC50 amounted to 0.17 µM in assay [1] and 5.3 µM in the assay on rat platelet.
In the same order, the values of `CCCCC(NS(=O)(=O)c1ccc(Br)cc1)C(=O)Nc1ccc(CC(=O)O)cc1` (racemic) [Example 226, (RS)-2-(4-bromobenzenesulfonylamino)-N-(4-(carboxymethyl)phenyl)hexanamide] are 0.072 µM and 0.53 µM.
With `CC(C)CC(NS(=O)(=O)c1ccc(Cl)cc1)C(=O)Nc1ccc(CC(=O)O)cc1` (racemic) [Example 232, (RS)-N-(4-(carboxymethyl)phenyl)-2-(4-chlorobenzenesulfonylamino)-4-methylpentanamide], the IC50 in assay [1] stood at 0.16 µM; with rat platelet, 1.7 µM.
In the same order, the values of `CSCCC(NS(=O)(=O)c1ccc(Cl)cc1)C(=O)Nc1ccc(CC(=O)O)cc1` (racemic) [Example 233, (RS)-N-(4-(carboxymethyl)phenyl)-2-(4-chlorobenzenesulfonylamino)-4-methylthiobutanamide] are 0.17 µM and 0.17 µM.
With `CCSCCC(NS(=O)(=O)c1ccc(Cl)cc1)C(=O)Nc1ccc(CC(=O)O)cc1` (racemic) [Example 242, (RS)-N-(4-(carboxymethyl)phenyl)-2-(4-chlorobenzenesulfonylamino)-4-ethylthiobutanamide], the values for the IC50 (in assay [1]; in the assay on rat platelet) were 0.032 µM and 0.16 µM, respectively.
On to `CCSCCC(NS(=O)(=O)c1ccc(Cl)cc1)C(=O)Nc1ccc(CCC(=O)O)cc1` (racemic) [Example 244, (RS)-N-(4-(2-carboxyethyl)phenyl)-2-(4-chlorobenzenesulfonylamino)-4-ethylthiobutanamide], for which the IC50 in assay [1] stood at 0.29 µM; in the assay with rat platelet, 1.6 µM.
In the same order, the values of `O=C(O)Cc1ccc(NC(=O)C(Cc2ccccc2)NS(=O)(=O)c2ccc(Cl)cc2)cc1` (racemic) [Example 247, (RS)-N-(4-(carboxymethyl)phenyl)-2-(4-chlorobenzenesulfonylamino)-3-phenylpropanamide] are 0.046 µM and 0.54 µM.
In the case of `O=C(O)CCc1ccc(NC(=O)C(Cc2ccccc2)NS(=O)(=O)c2ccc(Cl)cc2)cc1` (racemic) [Example 249, (RS)-N-(4-(2-carboxyethyl)phenyl)-2-(4-chlorobenzenesulfonylamino)-3-phenylpropanamide], the IC50 turned out to be 0.024 µM in assay [1] and 0.18 µM in the assay with rat platelet.
In the same order, the values of `O=C(O)Cc1ccc(NC(=O)C(Cc2ccccc2)NS(=O)(=O)c2ccc(Br)cc2)cc1` (racemic) [Example 251, (RS)-2-(4-bromobenzenesulfonylamino)-N-(4-(carboxymethyl)phenyl)-3-phenylpropanamide] are 0.012 µM and 0.17 µM.
`O=C(O)Cc1ccc(NC(=O)C(CC2CCCCC2)NS(=O)(=O)c2ccc(Cl)cc2)cc1` (racemic) [Example 260, (RS)-N-(4-(carboxymethyl)phenyl)-2-(4-chlorobenzenesulfonylamino)-3-cyclohexylpropanamide]: the IC50 in assay [1] came to 0.06 µM; in the assay with rat platelet, 0.89 µM.
For `CCCC[C@H](NS(=O)(=O)c1ccc(Cl)cc1)C(=O)Nc1ccc(CC(=O)O)cc1` [Example 223, (S)-N-(4-(carboxymethyl)phenyl)-2-(4-chlorobenzenesulfonylamino)hexanamide], the values for the IC50 (in assay [1]; in the assay on rat platelet) were 0.13 µM and 0.17 µM, respectively.
Turning to `CCCC[C@@H](NS(=O)(=O)c1ccc(Cl)cc1)C(=O)Nc1ccc(CC(=O)O)cc1` [Example 224, (R)-N-(4-(carboxymethyl)phenyl)-2-(4-chlorobenzenesulfonylamino)hexanamide], the IC50 in assay [1] is 48.2 µM; in the assay with rat platelet, 3.4 µM.
With `CSCC[C@H](NS(=O)(=O)c1ccc(Cl)cc1)C(=O)Nc1ccc(CC(=O)O)cc1` [Example 234, (S)-N-(4-(carboxymethyl)phenyl)-2-(4-chlorobenzenesulfonylamino)-4-methylthiobutanamide], the values for the IC50 (in assay [1]; with rat platelet) were 0.052 µM and 0.17 µM, respectively.
The matching figures for `CSCC[C@@H](NS(=O)(=O)c1ccc(Cl)cc1)C(=O)Nc1ccc(CC(=O)O)cc1` [Example 235, (R)-N-(4-(carboxymethyl)phenyl)-2-(4-chlorobenzenesulfonylamino)-4-methylthiobutanamide]: 22 µM and 17.1 µM.
As for `CSCC[C@H](NS(=O)(=O)c1ccc(Cl)cc1)C(=O)Nc1ccc(CCC(=O)O)cc1` [Example 237, (S)-N-(4-(2-carboxyethyl)phenyl)-2-(4-chlorobenzenesulfonylamino)-4-methylthiobutanamide], the IC50 in assay [1] turned out to be 0.15 µM; in the assay with rat platelet it was 0.3 µM.
In the same order, the values of `CSCC[C@H](NS(=O)(=O)c1ccc(Br)cc1)C(=O)Nc1ccc(CC(=O)O)cc1` [Example 239, (S)-2-(4-bromobenzenesulfonylamino)-N-(4-(carboxymethyl)phenyl)-4-methylthiobutanamide] are 0.026 µM and 0.055 µM.
Take `CSCC[C@H](NS(=O)(=O)c1ccc(Br)cc1)C(=O)Nc1ccc(CCC(=O)O)cc1` [Example 240, (S)-2-(4-bromobenzenesulfonylamino)-N-(4-(2-carboxyethyl)phenyl)-4-methylthiobutanamide]: the IC50 in assay [1] turned out to be 0.099 µM; in the assay on rat platelet it was 0.17 µM.
In the same order, the values of `CSCC[C@H](NS(=O)(=O)c1ccc(Br)cc1)C(=O)Nc1cccc(C(=O)O)c1` [Example 241, (S)-2-(4-bromobenzenesulfonylamino)-N-(3-carboxyphenyl)-4-methylthiobutanamide] are 0.014 µM and 0.053 µM.
In the same order, the values of `O=C(O)Cc1ccc(NC(=O)[C@H](Cc2ccccc2)NS(=O)(=O)c2ccc(Cl)cc2)cc1` [Example 248, (S)-N-(4-(carboxymethyl)phenyl)-2-(4-chlorobenzenesulfonylamino)-3-phenylpropanamide] are 0.012 µM and 0.053 µM.
In the same order, the values of `O=C(O)CCc1ccc(NC(=O)[C@H](Cc2ccccc2)NS(=O)(=O)c2ccc(Cl)cc2)cc1` [Example 250, (S)-N-(4-(2-carboxyethyl)phenyl)-2-(4-chlorobenzenesulfonylamino)-3-phenylpropanamide] are 0.029 µM and 0.17 µM.
Take `O=C(O)Cc1ccc(NC(=O)[C@H](Cc2ccccc2)NS(=O)(=O)c2ccc(Br)cc2)cc1` [Example 252, (S)-2-(4-bromobenzenesulfonylamino)-N-(4-(carboxymethyl)phenyl)-3-phenylpropanamide]: the values for the IC50 (in assay [1]; in the assay with rat platelet) were 0.0071 µM and 0.055 µM, respectively.
